How the values were obtained:
Format in all cases: in vivo
[1] = tested on: buckwheat, wild (wild buckwheat, Polygonum convolvulus); experiment: Test D controlled growth environment herbicide test, pre- and postemergence; details: for Buckwheat, Wild plant response rating / Plant response rating (scale of 0 to 100), Buckwheat, Wild: 31 g ai/ha
Source text: Seeds of plant species selected from bluegrass (annual bluegrass, Poa annua), blackgrass (Alopecurus myosuroides), Canada thistle (Cirsium arvense), canarygrass (Phalaris minor), chickweed (common chickweed, Stellaria media), geranium, cutleaf (cutleaf geranium, Geranium dissectum), galium (catchweed bedstraw, Galium aparine), bromegrass, downy (downy bromegrass, Bromus tectorum), field poppy (Papaver rhoeas), field violet (Viola arvensis), foxtail, green (green foxtail, Setaria viridis), deadnettle (henbit deadnettle, Lamium amplexicaule), ryegrass, Italian (Italian ryegrass, Lolium multiflorum), kochia (Kochia scoparia), lambsquarters (Chenopodium album), oilseed rape (Brassica napus), pigweed (Amaranthus retroflexus), chamomile (scentless chamomile, Matricaria inodora), Russian thistle (Salsola kali), speedwell (bird's-eye speedwell, Veronica persica), barley, spring (spring barley, Hordeum vulgare), wheat, spring (spring wheat, Triticum aestivum), buckwheat, wild (wild buckwheat, Polygonum convolvulus), mustard, wild (wild mustard, Sinapis arvensis), oat, wild (wild oat, Avena fatua), radish, wild (wild radish, Raphanus raphanistrum), windgrass (Apera spica-venti), barley, winter (winter barley, Hordeum vulgare), and wheat, winter (winter wheat, Triticum aestivum) were planted into a silt loam soil and treated preemergence with test chemicals formulated in a non-phytotoxic solvent mixture which included a surfactant.
At the same time, these species were planted in pots containing Redi-Earth® planting medium (Scotts Company, 14111 Scottslawn Road, Marysville, Ohio 43041) comprising spaghnum peat moss, vermiculite, wetting agent and starter nutrients and treated with postemergence applications of the test chemicals formulated in the same manner. Plants ranged in height from 2 to 18 cm (1- to 4-leaf stage). Treated plants and controls were maintained in a controlled growth environment for 14 to 21 d after which time all species were compared to controls and visually evaluated. Plant response ratings, summarized in Table D, are based on a scale of 0 to 100 where 0 is no effect and 100 is complete control. A dash (-) response means no test result.

[2] = tested on: arrowleaf sida (Sida rhombifolia); experiment: Test E greenhouse herbicide test, pre- and postemergence; details: Postemergence
Summary of the method: (§1)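 For each species, sown seed in silt loam and young plants (2 to 18 cm) in a peat/vermiculite medium were each treated with compound dissolved in surfactant-containing, non-phytotoxic solvent. After 14 to 21 d under greenhouse conditions, effects were visually rated, 100 meaning complete control.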

soybean (Glycine max) = experiment: as above; details: Postemergence
Summary of the method: as §1

corn (Zea mays) = experiment: as above; details: Postemergence
Summary of the method: as §1

[3] = tested on: pigweed, palmer (palmer pigweed, Amaranthus palmeri); experiment: as above; details: Postemergence
Summary of the method: as §1

[4] = tested on: field bindweed (Convolvulus arvensis); experiment: as above; details: Postemergence
Summary of the method: as §1

[5] = tested on: horseweed (Conyza canadensis); experiment: as above; details: Postemergence
Summary of the method: as §1

[6] = Postemergence, scale 0 to 100 (0 no effect, 100 complete control)
[7] = Postemergence, 125 g ai/ha, visual rating on scale 0 (no effect) to 100 (complete control), 14 to 21 d
[8] = Postemergence, 250 g ai/ha, scale 0 to 100 (0 no effect, 100 complete control)
[9] = Preemergence, 62 g ai/ha, scale 0 to 100 (0 no effect, 100 complete control)
[10] = Preemergence, 125 g ai/ha, scale 0 to 100 (0 no effect, 100 complete control)
[11] = Preemergence, 250 g ai/ha, scale 0 to 100 (0 no effect, 100 complete control)
[12] = postemergence, 62 g ai/ha, scale 0 to 100, 0 no effect, 100 complete control
[13] = 62 g ai/ha, scale 0 to 100 (0 no effect, 100 complete control)
[14] = 125 g ai/ha, scale 0 to 100 (0 no effect, 100 complete control)
[15] = 250 g ai/ha, scale 0 to 100 (0 no effect, 100 complete control)
[16] = 31 g ai/ha, visual, scale 0 no effect to 100 complete control

## COc1nn(C)c(=O)c(-c2c(C)ccc3ccccc23)c1OC(=O)OC(C)C [Compound 36]
[1]; [6]
  Buckwheat, Wild plant response rating: 100
[1]; [7]
  Plant response rating, Buckwheat, Wild: 100
[1]; [8]
  Plant response rating, Buckwheat, Wild: 100
[1]; Preemergence
  Plant response rating (scale of 0 to 100), Buckwheat, Wild: 0
[1]; [9]
  Plant response rating, Buckwheat, Wild: 0
[1]; [10]
  Plant response rating, Buckwheat, Wild: 10
[1]; [11]
  Plant response rating, Buckwheat, Wild: 10
[1]; [12]
  Plant response rating, Buckwheat, Wild: 100

## CCC(=O)Oc1c(C)nn(C)c(=O)c1-c1c(C)sc2ccc(C)cc12 [Compound 42]
[2]; [13]
  Plant response rating, Arrowleaf Sida: 60
[2]; [14]
  Plant response rating, Arrowleaf Sida: 70
[2]; [15]
  Plant response rating, Arrowleaf Sida: 80
[2]; [16]
  Plant response rating, Arrowleaf Sida: 20
Soybean (Glycine max); [13]
  Plant response rating, Soybean: 20
Soybean (Glycine max); [14]
  Plant response rating, Soybean: 30
Soybean (Glycine max); [15]
  Plant response rating, Soybean: 50
Soybean (Glycine max); [16]
  Plant response rating, Soybean: 10
Corn (Zea mays); [13]
  Plant response rating, Corn: 15
Corn (Zea mays); [14]
  Plant response rating, Corn: 15
Corn (Zea mays); [15]
  Plant response rating, Corn: 20
Corn (Zea mays); [16]
  Plant response rating, Corn: 10
[3]; [13]
  Plant response rating, Pigweed, Palmer: 75
[3]; [14]
  Plant response rating, Pigweed, Palmer: 60
[3]; [15]
  Plant response rating, Pigweed, Palmer: 95
[3]; [16]
  Plant response rating, Pigweed, Palmer: 70
[4]; [13]
  Plant response rating, Field Bindweed: 85
[4]; [14]
  Plant response rating, Field Bindweed: 90
[4]; [15]
  Plant response rating, Field Bindweed: 90
[4]; [16]
  Plant response rating, Field Bindweed: 90
[5]; [13]
  Plant response rating, Horseweed: 75
[5]; [14]
  Plant response rating, Horseweed: 75
[5]; [15]
  Plant response rating, Horseweed: 85
[5]; [16]
  Plant response rating, Horseweed: 75
[1]; [6]
  Buckwheat, Wild plant response rating: 80
[1]; [7]
  Plant response rating, Buckwheat, Wild: 100
[1]; [8]
  Plant response rating, Buckwheat, Wild: 100
[1]; Preemergence
  Plant response rating (scale of 0 to 100), Buckwheat, Wild: 20
[1]; [9]
  Plant response rating, Buckwheat, Wild: 25
[1]; [10]
  Plant response rating, Buckwheat, Wild: 80
[1]; [11]
  Plant response rating, Buckwheat, Wild: 60
[1]; [12]
  Plant response rating, Buckwheat, Wild: 95

## Cc1ccc(-c2c(O)c(Br)nn(C)c2=O)c2ccccc12 [Compound 52]
[1]; [6]
  Buckwheat, Wild plant response rating: 100
[1]; [7]
  Plant response rating, Buckwheat, Wild: 100
[1]; [8]
  Plant response rating, Buckwheat, Wild: 100
[1]; Preemergence
  Plant response rating (scale of 0 to 100), Buckwheat, Wild: 20
[1]; [9]
  Plant response rating, Buckwheat, Wild: 20
[1]; [10]
  Plant response rating, Buckwheat, Wild: 55
[1]; [11]
  Plant response rating, Buckwheat, Wild: 100
[1]; [12]
  Plant response rating, Buckwheat, Wild: 100

## COc1nn(C)c(=O)c(-c2c(C)ccc3ccccc23)c1O [Compound 54]
[1]; [6]
  Buckwheat, Wild plant response rating: 100
[1]; [7]
  Plant response rating, Buckwheat, Wild: 100
[1]; [8]
  Plant response rating, Buckwheat, Wild: 100
[1]; Preemergence
  Plant response rating (scale of 0 to 100), Buckwheat, Wild: 0
[1]; [9]
  Plant response rating, Buckwheat, Wild: 5
[1]; [10]
  Plant response rating, Buckwheat, Wild: 70
[1]; [11]
  Plant response rating, Buckwheat, Wild: 80
[1]; [12]
  Plant response rating, Buckwheat, Wild: 100

## Cc1ccc2ccc(C)c(-c3c(O)c(C)nn(C)c3=O)c2c1 [Compound 60]
[1]; [6]
  Buckwheat, Wild plant response rating: 90
[1]; [7]
  Plant response rating, Buckwheat, Wild: 100
[1]; [8]
  Plant response rating, Buckwheat, Wild: 100
[1]; Preemergence
  Plant response rating (scale of 0 to 100), Buckwheat, Wild: 0
[1]; [9]
  Plant response rating, Buckwheat, Wild: 25
[1]; [10]
  Plant response rating, Buckwheat, Wild: 50
[1]; [11]
  Plant response rating, Buckwheat, Wild: 60
[1]; [12]
  Plant response rating, Buckwheat, Wild: 95

## Cc1cc(C)c2sc(C)c(-c3c(OC(=O)OC(C)C)c(C)nn(C)c3=O)c2c1 [Compound 67]
[1]; [6]
  Buckwheat, Wild plant response rating: 100
[1]; [7]
  Plant response rating, Buckwheat, Wild: 100
[1]; [8]
  Plant response rating, Buckwheat, Wild: 100
[1]; Preemergence
  Plant response rating (scale of 0 to 100), Buckwheat, Wild: 0
[1]; [9]
  Plant response rating, Buckwheat, Wild: 0
[1]; [10]
  Plant response rating, Buckwheat, Wild: 0
[1]; [11]
  Plant response rating, Buckwheat, Wild: 0
[1]; [12]
  Plant response rating, Buckwheat, Wild: 100

## CCOC(=O)Oc1c(C)nn(C)c(=O)c1-c1c(C)ccc2ccccc12 [Compound 73]
[1]; [6]
  Buckwheat, Wild plant response rating: 95
[1]; [7]
  Plant response rating, Buckwheat, Wild: 100
[1]; [8]
  Plant response rating, Buckwheat, Wild: 100
[1]; Preemergence
  Plant response rating (scale of 0 to 100), Buckwheat, Wild: 0
[1]; [9]
  Plant response rating, Buckwheat, Wild: 0
[1]; [10]
  Plant response rating, Buckwheat, Wild: 60
[1]; [11]
  Plant response rating, Buckwheat, Wild: 30
[1]; [12]
  Plant response rating, Buckwheat, Wild: 100

## COc1nn(C)c(=O)c(-c2c(C)sc3ccc(Cl)cc23)c1O [Compound 100]
[2]; [13]
  Plant response rating, Arrowleaf Sida: 60
[2]; [14]
  Plant response rating, Arrowleaf Sida: 70
[2]; [15]
  Plant response rating, Arrowleaf Sida: 75
[2]; [16]
  Plant response rating, Arrowleaf Sida: 50
Soybean (Glycine max); [14]
  Plant response rating, Soybean: 0
Soybean (Glycine max); [15]
  Plant response rating, Soybean: 0
Soybean (Glycine max); [16]
  Plant response rating, Soybean: 0
Corn (Zea mays); [13]
  Plant response rating, Corn: 5
Corn (Zea mays); [14]
  Plant response rating, Corn: 0
Corn (Zea mays); [15]
  Plant response rating, Corn: 0
Corn (Zea mays); [16]
  Plant response rating, Corn: 0
[3]; [13]
  Plant response rating, Pigweed, Palmer: 30
[3]; [14]
  Plant response rating, Pigweed, Palmer: 40
[3]; [15]
  Plant response rating, Pigweed, Palmer: 50
[3]; [16]
  Plant response rating, Pigweed, Palmer: 20
[4]; [13]
  Plant response rating, Field Bindweed: 80
[4]; [14]
  Plant response rating, Field Bindweed: 90
[4]; [15]
  Plant response rating, Field Bindweed: 95
[4]; [16]
  Plant response rating, Field Bindweed: 75
[5]; [13]
  Plant response rating, Horseweed: 70
[5]; [14]
  Plant response rating, Horseweed: 75
[5]; [15]
  Plant response rating, Horseweed: 80
[5]; [16]
  Plant response rating, Horseweed: 35

## Cc1nn(C)c(=O)c(-c2c(C)sc3ccc(Cl)cc23)c1O [Compound 104]
[1]; [6]
  Buckwheat, Wild plant response rating: 90
[1]; [7]
  Plant response rating, Buckwheat, Wild: 100
[1]; [8]
  Plant response rating, Buckwheat, Wild: 100
[1]; Preemergence
  Plant response rating (scale of 0 to 100), Buckwheat, Wild: 0
[1]; [9]
  Plant response rating, Buckwheat, Wild: 60
[1]; [10]
  Plant response rating, Buckwheat, Wild: 55
[1]; [11]
  Plant response rating, Buckwheat, Wild: 95
[1]; [12]
  Plant response rating, Buckwheat, Wild: 95

## CC(=O)Oc1c(Br)nn(C)c(=O)c1-c1c(C)ccc2ccccc12 [Compound 129]
[1]; [6]
  Buckwheat, Wild plant response rating: 100
[1]; [7]
  Plant response rating, Buckwheat, Wild: 100
[1]; [8]
  Plant response rating, Buckwheat, Wild: 100
[1]; Preemergence
  Plant response rating (scale of 0 to 100), Buckwheat, Wild: 0
[1]; [9]
  Plant response rating, Buckwheat, Wild: 30
[1]; [10]
  Plant response rating, Buckwheat, Wild: 85
[1]; [11]
  Plant response rating, Buckwheat, Wild: 85
[1]; [12]
  Plant response rating, Buckwheat, Wild: 100

## CSCC(=O)Oc1c(C)nn(C)c(=O)c1-c1cccc2ccccc12 [Compound 171]
[2]; [13]
  Plant response rating, Arrowleaf Sida: 80
[2]; [14]
  Plant response rating, Arrowleaf Sida: 90
[2]; [15]
  Plant response rating, Arrowleaf Sida: 95
[2]; [16]
  Plant response rating, Arrowleaf Sida: 80
Soybean (Glycine max); [14]
  Plant response rating, Soybean: 50
Soybean (Glycine max); [15]
  Plant response rating, Soybean: 70
Soybean (Glycine max); [16]
  Plant response rating, Soybean: 40
Corn (Zea mays); [13]
  Plant response rating, Corn: 0
Corn (Zea mays); [14]
  Plant response rating, Corn: 0
Corn (Zea mays); [15]
  Plant response rating, Corn: 0
Corn (Zea mays); [16]
  Plant response rating, Corn: 0
[3]; [13]
  Plant response rating, Pigweed, Palmer: 50
[3]; [14]
  Plant response rating, Pigweed, Palmer: 60
[3]; [15]
  Plant response rating, Pigweed, Palmer: 70
[3]; [16]
  Plant response rating, Pigweed, Palmer: 50
[4]; [13]
  Plant response rating, Field Bindweed: 85
[4]; [14]
  Plant response rating, Field Bindweed: 100
[4]; [15]
  Plant response rating, Field Bindweed: 100
[4]; [16]
  Plant response rating, Field Bindweed: 70
[5]; [13]
  Plant response rating, Horseweed: 60
[5]; [14]
  Plant response rating, Horseweed: 70
[5]; [15]
  Plant response rating, Horseweed: 60
[5]; [16]
  Plant response rating, Horseweed: 50
